Assay results reported in patent US7041701B2, “Triterpenoid derivatives” (Univerzita Palackeho V Olomouci, priority 2000, dated 2006).
Like-named read-outs stand apart in the source and are kept apart here.

How the values were obtained:
[1] = system: MEL-3 human melanoma; assay: MTT cytotoxicity assay, MEL-3; assay type: cell-based; settings: Homo sapiens, 72 hours, read-out: TCS50
Excerpt: (§1) One of the parameters used as the basis for colorimetric assays is the metabolic activity of viable cells. For example, a microtiter assay which uses the tetrazolium salt MTT is now widely used to quantitate cell proliferation and cytotoxicity [Hajdúch M, Mihál V, Minarík J, Fáber E, Safárová M, Weigl E, Antálek P.: Cytotechnology, 1996, 19, 243–245]. For instance, this assay is used in drug screening programs and in chemosensitivity testing. Because tetrazolium salts are cleaved only by metabolically active cells, these assays exclusively detect viable cells. In the case of the MTT assay, yellow soluble tetrazolium salt is reduced to a coloured water-insoluble formazan salt. After it is solubilized, the formazan formed can easily and rapidly be quantified in a conventional ELISA plate reader at 570 nm (maximum absorbancy). The quantity of reduced formazan corresponds to the number of vital cells in the culture. […]
(§2) The cell suspensions that were prepared and diluted according to the particular cell type and the expected target cell density (2,500–30,000 cells per well based on cell growth characteristics) were added by pipette (80 μl) into 96/well microtiter plates. […] Usually, test compounds were evaluated at six 4-fold dilutions. […] The tumour cell survival (TCS) was calculated using the following equitation: TCS=(ODdrug exposed well/mean ODcontrol wells)×100%. […]

[2] = system: CEM-VCR bulk human T-lymphoblastic leukemia, vincristin resistant; assay: MTT cytotoxicity assay, CEM-VCR bulk; assay type: cell-based; settings: Homo sapiens, 72 hours, read-out: TCS50
Excerpt: as §1, §2

[3] = system: HepG2 human hepatocellular carcinoma; assay: MTT cytotoxicity assay, HepG2; assay type: cell-based; settings: Homo sapiens, 72 hours, read-out: TCS50
Excerpt: as §1, §2

[4] = system: CEM human T-lymphoblastic leukemia; assay: MTT cytotoxicity screening assay, CEM; assay type: cell-based
Excerpt: One of the parameters used as the basis for colorimetric assays is the metabolic activity of viable cells. For example, a microtiter assay which uses the tetrazolium salt MTT is now widely used to quantitate cell proliferation and cytotoxicity [Hajdúch M, Mihál V, Minarík J, Fáber E, Safárová M, Weigl E, Antálek P.: Cytotechnology, 1996, 19, 243–245]. For instance, this assay is used in drug screening programs and in chemosensitivity testing. Because tetrazolium salts are cleaved only by metabolically active cells, these assays exclusively detect viable cells. In the case of the MTT assay, yellow soluble tetrazolium salt is reduced to a coloured water-insoluble formazan salt. After it is solubilized, the formazan formed can easily and rapidly be quantified in a conventional ELISA plate reader at 570 nm (maximum absorbancy). The quantity of reduced formazan corresponds to the number of vital cells in the culture.
Human T-lymphoblastic leukaemia cell line CEM was used for routine screening of these compounds. […] The cells were maintained in Nunc/Corning 80 cm^2 plastic tissue culture flasks and cultured in cell culture medium (DMEM with 5 g/l glucose, 2 mM glutamine, 100 U/ml penicillin, 100 μg/ml streptomycin, 10% foetal calf serum and sodium bicarbonate). Individual compounds were dissolved in 10% diiethylsulfoxide/saline, pH 8.0.
The cell suspensions that were prepared and diluted according to the particular cell type and the expected target cell density (2,500–30,000 cells per well based on cell growth characteristics) were added by pipette (80 μl) into 96/well microtiter plates. Inoculates were allowed a pre-incubation period of 24 hours at 37° C. and 5% CO2 for stabilisation. Four-fold dilutions of the intended test concentration were added at time zero in 20 μl aliquots to the microtiter plate wells. Usually, test compounds were evaluated at six 4-fold dilutions. In routine testing, the highest well concentration was 250 μM, but it may differ, depending on the agent. All drug concentrations were examined in duplicate. Incubations of cells with the test compounds lasted for 72 hours at 37° C., in 5% CO2 atmosphere and 100% humidity. At the end of the incubation period, the cells were assayed by using the MTT assay. […] After this incubation period, formazan was solubilized by the addition of 100 μl/well of 10% SDS in water (pH=5.5) followed by further incubation at 37° C. overnight The optical density (OD) was measured at 540 nm with the Labsystem iEMS Reader MF(UK). The tumour cell survival (TCS) was calculated using the following equitation: TCS=(ODdrug exposed well/mean ODcontrol wells)×100%. The TCS50 value, the drug concentration lethal to 50% of the tumour cells, was calculated from the obtained dose response curves. […]

[5] = system: BT549 human breast cancer, p53mut/mut; assay: MTT cytotoxicity assay, BT549; assay type: cell-based; settings: Homo sapiens, BT-549, 72 hours, read-out: TCS50
Excerpt: as §1, §2

[6] = system: K562-FLUD human promyelocytic leukemia, fludarabin resistant; assay: MTT cytotoxicity assay, K562-FLUD; assay type: cell-based; settings: Homo sapiens, 72 hours, read-out: TCS50
Excerpt: as §1, §2

[7] = system: K562-GEM human promyelocytic leukemia, gemcitabin resistant; assay: MTT cytotoxicity assay, K562-GEM; assay type: cell-based; settings: Homo sapiens, 72 hours, read-out: TCS50
Excerpt: as §1, §2

[8] = system: CEM-VCR 1/F3 human T-lymphoblastic leukemia, vincristin resistant; assay: MTT cytotoxicity assay, CEM-VCR 1/F3; assay type: cell-based; settings: Homo sapiens, 72 hours, read-out: TCS50
Excerpt: as §1, §2

[9] = system: SW620 human colon cancer, metastasis; assay: MTT cytotoxicity assay, SW620; assay type: cell-based; settings: Homo sapiens, SW-620, 72 hours, read-out: TCS50
Excerpt: as §1, §2

[10] = system: U2OS human osteosarcoma, p53+/−, Rb+/−; assay: MTT cytotoxicity assay, U2OS; assay type: cell-based; settings: Homo sapiens, 72 hours, read-out: TCS50
Excerpt: as §1, §2

[11] = system: CEM-DNR bulk human T-lymphoblastic leukemia, daunorubicin resistant; assay: MTT cytotoxicity assay, CEM-DNR bulk; assay type: cell-based; settings: Homo sapiens, 72 hours, read-out: TCS50
Excerpt: as §1, §2

[12] = system: HT-29 human colon cancer; assay: MTT cytotoxicity assay, HT-29; assay type: cell-based; settings: Homo sapiens, 72 hours, read-out: TCS50
Excerpt: as §1, §2

[13] = system: CEM-VCR 3/D5 human T-lymphoblastic leukemia, vincristin resistant; assay: MTT cytotoxicity assay, CEM-VCR 3/D5; assay type: cell-based; settings: Homo sapiens, 72 hours, read-out: TCS50
Excerpt: as §1, §2

[14] = system: K562 human promyelocytic leukemia; assay: MTT cytotoxicity assay, K562; assay type: cell-based; settings: Homo sapiens, 72 hours, read-out: TCS50
Excerpt: as §1, §2

[15] = system: Caco-2 human colon cancer; assay: MTT cytotoxicity assay, Caco-2; assay type: cell-based; settings: Homo sapiens, 72 hours, read-out: TCS50
Excerpt: as §1, §2

[16] = system: K562-ARA-C human promyelocytic leukemia, cytarabin resistant; assay: MTT cytotoxicity assay, K562-ARA-C; assay type: cell-based; settings: Homo sapiens, 72 hours, read-out: TCS50
Excerpt: as §1, §2

[17] = system: B16F mouse melanoma, metastatic; assay: MTT cytotoxicity assay, B16F; assay type: cell-based; settings: Mus musculus, 72 hours, read-out: TCS50
Excerpt: as §1, §2

[18] = system: CEM-DNR 1/C2 human T-lymphoblastic leukemia, daunorubicin resistant; assay: MTT cytotoxicity assay, CEM-DNR 1/C2; assay type: cell-based; settings: Homo sapiens, 72 hours, read-out: TCS50
Excerpt: as §1, §2

[19] = system: Saos2 human, p53−/−, Rb−/−; assay: MTT cytotoxicity assay, Saos2; assay type: cell-based; settings: Homo sapiens, SAOS-2, 72 hours, read-out: TCS50
Excerpt: as §1, §2

[20] = system: NIH3T3 mouse immortalised fibroblasts; assay: MTT cytotoxicity assay, NIH3T3; assay type: cell-based; settings: Mus musculus, 72 hours, read-out: TCS50
Excerpt: as §1, §2

[21] = system: B16 mouse melanoma; assay: MTT cytotoxicity assay, B16; assay type: cell-based; settings: Mus musculus, 72 hours, read-out: TCS50
Excerpt: as §1, §2

[22] = system: U87MG human glioblastoma; assay: MTT cytotoxicity assay, U87MG; assay type: cell-based; settings: Homo sapiens, U-87 MG, 72 hours, read-out: TCS50
Excerpt: as §1, §2

[23] = system: K562-CdA human promyelocytic leukemia, cladrubin resistant; assay: MTT cytotoxicity assay, K562-CdA; assay type: cell-based; settings: Homo sapiens, 72 hours, read-out: TCS50
Excerpt: as §1, §2

[24] = system: human normal lymphocytes; assay: MTT cytotoxicity assay, normal lymphocytes; assay type: cell-based; settings: Lymphocyte, 72 hours, read-out: TCS50
Excerpt: as §1, §2

[25] = system: H3 histone (Lys9); assay: Histone acetylation, Western blot in CEM cells; assay type: cell-based, human
Procedure: CEM cells were cultured in Dulbeco's modified essential medium with 4.5 g dextrose/l, 10% of foetal calf serum, 2 mM glutamine, 100 U/ml penicillin and 100 μg/ml streptomycin with/without the indicated concentrations of HDAC inhibitor TSA or I.3. At selected time points, cells were harvested, washed in ice cold Hank's balanced salt solution and solubilized on ice using SDS-PAGE sample buffer containing protease and phosphatase inhibitors (10 μg/ml of leupeptin, 10 μg/ml of aprotinin, 10 μg/ml of soybean trypsin inhibitor, 100 μmol of benzamide, 1 mM of sodium vanadate, 1 mM of NaF, 1 mM of phenylphosphate) and boiled immediately.
Total cellular proteins (100 μg/well) were separated on SDS-PAGE electrophoresis, blotted on polyvinyldifluoride membranes and acetylated histone was detected using a anti-acetyl(Lys9)-histone H3 rabbit polyclonal antibody (Cell Signalling Technology, Beverly, Mass.; Cat# 9671L) and visualized by chemilumniuscence (ECL-Western Blotting System, Amersham). Details of the Western blot technique are described in Ausubel, F. M., Brent, R, Kingston, R. E., Moore, D. D., Seidman, J. G., Smith, J. A., Struhl, K. (Eds): Short Protocols in Molecular. Biology, 2nd edition, John Wiley & Sons, New York, Chichester, Brisbane, Toronto, Singapore, 1992, page 10–33–10–35.

[26] = system: human SK-N-AS neuroblastoma; assay: In vivo activity in xenotransplanted human neuroblastoma; set-up: species or system CD-1/Ctrl-1 nu/nu nude female mice; settings: cisplatin 4 mg/kg subcutaneously 1×D1; SK-N-AS in nude mice (FIG. 2)
Procedure: Human neuroblastoma SK-N-AS cell line was obtained from ATTC. The line was cultured in Dulbeco's modified essential medium with 4.5 g dextrose/l, 10% of foetal calf serum, 2 mM glutamine, 100 U/ml penicillin and […] streptomycin. For transplantation purposes, only the cells in log phase were used.
CD-1/Ctrl-1 nu/nu nude female mice, 8 weeks old, 18–22 g weight were used in this study (IffaCredo, France). Animals were inoculated with 5.10^6 tumour cells subcutaneously into right inquinal region. Following transplantation, tumor growth was measured in both the control/vehicle and the treated groups using calipers. Tumor volume (TV) was calculated as follows: TV=(a^2×b)/2, where a is width and b is length The statistical significance was evaluated using a […].
Cisplatin (Platidiam 10 inj, sicc., Lachema, Czech Republic) was used as a control drug in this experiment. It was diluted in apyrogenic water and applied to animals in a final volume of 0.18 ml subcutaneously at day 1.
I.3 was synthesised as described above. It was suspended at 10 mg/ml in 5% dextrose and pH was adjusted to 8.0 with sodium hydroxide. vehicle: 5% dextrose with pH adjusted to 8.0 with sodium hydroxide. […]

C=C(C)[C@@H]1CC[C@]2(C(=O)O)CC[C@]3(C)[C@H](CC[C@@H]4[C@@]5(C)CC[C@H](O)C(C)(C)[C@@H]5CC[C@]43C)[C@@H]12 [Betulinic acid, betulinic acid, reference compound]
IC50 [1]: 2.7 µM | IC50 [2]: 69 µM | IC50 [3]: 3.6 µM | IC50 ([4]; Homo sapiens, CEM, MTT assay, 72 hours, read-out: TCS50): 250 µM | IC50 [5]: 250 µM | IC50 [6]: 250 µM | IC50 [7]: 101 µM | IC50 [8]: 19 µM | IC50 [9]: 250 µM | IC50 [10]: 250 µM | IC50 [11]: 250 µM | IC50 [12]: 250 µM | IC50 [13]: 24 µM | IC50 [14]: 250 µM | IC50 [15]: 20 µM | IC50 [16]: 250 µM | IC50 [17]: 4.6 µM | IC50 [18]: 250 µM | IC50 [19]: 250 µM | IC50 [20]: 250 µM | IC50 [21]: 36 µM | IC50 [22]: 250 µM | IC50 [23]: 250 µM | IC50 [24]: 250 µM

CC(/C=C/C(=O)NO)=C\[C@@H](C)C(=O)c1ccc(N(C)C)cc1 [TSA, trichostatin A, reference compound]
IC50 ([4]; CEM cells, as stated in the histone acetylation study, read-out: IC50): 0.24 µM | increase of histone acetylation ([25]; 0.24 μM (IC50)): no significant ability to increase histone acetylation | acetylation of H3 histone in Lys9 position ([25]; Western blot (FIG. 5)): rapidly acetylated

N.N.[Cl][Pt][Cl] [cisplatin, Cisplatin, reference compound]
tumor growth (tumor volume) [26]: no significant activity
